Data as given in PubChem BioAssay (NCI).
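Exposure lasted 48 hours, with cells grown in 96-well plates and compounds tested at five concentrations. Abbreviation: GI50, concentration required for 50% inhibition of growth. The concentration for full growth arrest is given as TGI.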

Legend:
Test in all cases: DTP human tumour cell line panel, 48 h
786-0 renal = tested on: 786-0 renal
A498 renal = tested on: A498 renal
A549 NSCLC = tested on: A549 NSCLC
ACHN renal = tested on: ACHN renal
BT-549 breast = tested on: BT-549 breast
CAKI-1 renal = tested on: CAKI-1 renal
CCRF-CEM leukemia = tested on: CCRF-CEM leukemia
COLO 205 colon = tested on: COLO 205 colon
DU-145 prostate = tested on: DU-145 prostate
EKVX NSCLC = tested on: EKVX NSCLC
HCC-2998 colon = tested on: HCC-2998 colon
HCT-116 colon = tested on: HCT-116 colon
HCT-15 colon = tested on: HCT-15 colon
HL-60(TB) leukemia = tested on: HL-60(TB) leukemia
HOP-62 NSCLC = tested on: HOP-62 NSCLC
HOP-92 NSCLC = tested on: HOP-92 NSCLC
HS 578T breast = tested on: HS 578T breast
HT29 colon = tested on: HT29 colon
IGROV1 ovarian = tested on: IGROV1 ovarian
K-562 leukemia = tested on: K-562 leukemia
KM12 colon = tested on: KM12 colon
LOX IMVI melanoma = tested on: LOX IMVI melanoma
M14 melanoma = tested on: M14 melanoma
MALME-3M melanoma = tested on: MALME-3M melanoma
MCF7 breast = tested on: MCF7 breast
MDA-MB-231 breast = tested on: MDA-MB-231 breast
MDA-MB-435 = tested on: MDA-MB-435
MOLT-4 leukemia = tested on: MOLT-4 leukemia
NCI-H226 lung = tested on: NCI-H226 lung
NCI-H23 lung = tested on: NCI-H23 lung
NCI-H460 lung = tested on: NCI-H460 lung
NCI-H522 lung = tested on: NCI-H522 lung
NCI/ADR-RES ovarian = tested on: NCI/ADR-RES ovarian
OVCAR-3 ovarian = tested on: OVCAR-3 ovarian
OVCAR-4 ovarian = tested on: OVCAR-4 ovarian
OVCAR-5 ovarian = tested on: OVCAR-5 ovarian
OVCAR-8 ovarian = tested on: OVCAR-8 ovarian
PC-3 prostate = tested on: PC-3 prostate
RPMI-8226 leukemia = tested on: RPMI-8226 leukemia
RXF 393 renal = tested on: RXF 393 renal
SF-268 CNS = tested on: SF-268 CNS
SF-295 CNS = tested on: SF-295 CNS
SF-539 CNS = tested on: SF-539 CNS
SK-MEL-2 melanoma = tested on: SK-MEL-2 melanoma
SK-MEL-28 melanoma = tested on: SK-MEL-28 melanoma
SK-MEL-5 melanoma = tested on: SK-MEL-5 melanoma
SK-OV-3 ovarian = tested on: SK-OV-3 ovarian
SN12C renal = tested on: SN12C renal
SNB-19 CNS = tested on: SNB-19 CNS
SNB-75 CNS = tested on: SNB-75 CNS
SR leukemia = tested on: SR leukemia
SW-620 colon = tested on: SW-620 colon
T-47D breast = tested on: T-47D breast
TK-10 renal = tested on: TK-10 renal
U251 CNS = tested on: U251 CNS
UACC-257 melanoma = tested on: UACC-257 melanoma
UACC-62 melanoma = tested on: UACC-62 melanoma
UO-31 renal = tested on: UO-31 renal

Which results are given for Cn1cc(-c2nc(N)nnc2-c2c[nH]c3ccccc23)c2cc(Br)ccc21?
GI50 (786-0 renal): 2650 nM; TGI (786-0 renal): 17.6 µM; GI50 (A498 renal): 1190 nM; TGI (A498 renal): 5.7 µM; GI50 (A549 NSCLC): 1550 nM; TGI (A549 NSCLC): 39.7 µM; GI50 (ACHN renal): 3.57 µM; TGI (ACHN renal): 20 µM; GI50 (BT-549 breast): 1530 nM; TGI (BT-549 breast): 14.5 µM; GI50 (CAKI-1 renal): 536 nM; TGI (CAKI-1 renal): 13.6 µM; GI50 (CCRF-CEM leukemia): 2210 nM; TGI (CCRF-CEM leukemia): 13.5 µM; GI50 (COLO 205 colon): 877 nM; TGI (COLO 205 colon): 7.13 µM; GI50 (DU-145 prostate): 3.26 µM; TGI (DU-145 prostate): 14.8 µM; GI50 (EKVX NSCLC): 2620 nM; TGI (EKVX NSCLC): 23.4 µM; GI50 (HCC-2998 colon): 2700 nM; TGI (HCC-2998 colon): 13.7 µM; GI50 (HCT-116 colon): 518 nM; TGI (HCT-116 colon): 11.9 µM; GI50 (HCT-15 colon): 552 nM; TGI (HCT-15 colon): 16.4 µM; GI50 (HL-60(TB) leukemia): 451 nM; TGI (HL-60(TB) leukemia): 7.69 µM; GI50 (HOP-62 NSCLC): 2520 nM; TGI (HOP-62 NSCLC): 19.9 µM; GI50 (HOP-92 NSCLC): 2620 nM; TGI (HOP-92 NSCLC): 22.4 µM; GI50 (HS 578T breast): 1890 nM; TGI (HS 578T breast): 9.3 µM; GI50 (HT29 colon): 483 nM; TGI (HT29 colon): 5.38 µM; GI50 (IGROV1 ovarian): 900 nM; TGI (IGROV1 ovarian): 24.2 µM; GI50 (K-562 leukemia): 393 nM; TGI (K-562 leukemia): 13.2 µM; GI50 (KM12 colon): 591 nM; TGI (KM12 colon): 11.9 µM; GI50 (LOX IMVI melanoma): 1370 nM; TGI (LOX IMVI melanoma): 27.4 µM; GI50 (M14 melanoma): 768 nM; TGI (M14 melanoma): 8.45 µM; GI50 (MALME-3M melanoma): 6.12 µM; TGI (MALME-3M melanoma): 32.2 µM; GI50 (MCF7 breast): 480 nM; TGI (MCF7 breast): 16.4 µM; GI50 (MDA-MB-231 breast): 4.49 µM; TGI (MDA-MB-231 breast): 66.1 µM; GI50 (MDA-MB-435): 312 nM; TGI (MDA-MB-435): 11.8 µM; GI50 (MOLT-4 leukemia): 684 nM; TGI (MOLT-4 leukemia): 4.05 µM; GI50 (NCI-H226 lung): 2390 nM; TGI (NCI-H226 lung): 15.9 µM; GI50 (NCI-H23 lung): 2210 nM; TGI (NCI-H23 lung): 17.2 µM; GI50 (NCI-H460 lung): 551 nM; TGI (NCI-H460 lung): 12.2 µM; GI50 (NCI-H522 lung): 646 nM; TGI (NCI-H522 lung): 8.03 µM; GI50 (NCI/ADR-RES ovarian): 1670 nM; TGI (NCI/ADR-RES ovarian): 18.6 µM; GI50 (OVCAR-3 ovarian): 507 nM; TGI (OVCAR-3 ovarian): 4.94 µM; GI50 (OVCAR-4 ovarian): 3.72 µM; TGI (OVCAR-4 ovarian): 21.8 µM; GI50 (OVCAR-5 ovarian): 5.9 µM; TGI (OVCAR-5 ovarian): 25.5 µM; GI50 (OVCAR-8 ovarian): 3.62 µM; TGI (OVCAR-8 ovarian): 69.5 µM; GI50 (PC-3 prostate): 2120 nM; TGI (PC-3 prostate): 64 µM; GI50 (RPMI-8226 leukemia): 2350 nM; TGI (RPMI-8226 leukemia): 46.2 µM; GI50 (RXF 393 renal): 1170 nM; TGI (RXF 393 renal): 4.4 µM; GI50 (SF-268 CNS): 2510 nM; TGI (SF-268 CNS): 18.6 µM; GI50 (SF-295 CNS): 922 nM; TGI (SF-295 CNS): 11.4 µM; GI50 (SF-539 CNS): 2170 nM; TGI (SF-539 CNS): 6.88 µM; GI50 (SK-MEL-2 melanoma): 1900 nM; TGI (SK-MEL-2 melanoma): 13.6 µM; GI50 (SK-MEL-28 melanoma): 6.98 µM; TGI (SK-MEL-28 melanoma): 22.5 µM; GI50 (SK-MEL-5 melanoma): 1580 nM; TGI (SK-MEL-5 melanoma): 9.96 µM; GI50 (SK-OV-3 ovarian): 3.02 µM; TGI (SK-OV-3 ovarian): 18.7 µM; GI50 (SN12C renal): 5.17 µM; TGI (SN12C renal): 47.9 µM; GI50 (SNB-19 CNS): 2050 nM; TGI (SNB-19 CNS): 22.7 µM; GI50 (SNB-75 CNS): 460 nM; TGI (SNB-75 CNS): 4.54 µM; GI50 (SR leukemia): 312 nM; TGI (SR leukemia): 2430 nM; GI50 (SW-620 colon): 670 nM; TGI (SW-620 colon): 15.9 µM; GI50 (T-47D breast): 783 nM; TGI (T-47D breast): 24.4 µM; GI50 (TK-10 renal): 6.01 µM; TGI (TK-10 renal): 34.3 µM; GI50 (U251 CNS): 2260 nM; TGI (U251 CNS): 15.2 µM; GI50 (UACC-257 melanoma): 7.26 µM; TGI (UACC-257 melanoma): 22.4 µM; GI50 (UACC-62 melanoma): 988 nM; TGI (UACC-62 melanoma): 18.9 µM; GI50 (UO-31 renal): 1990 nM; TGI (UO-31 renal): 20.8 µM
